Reference: US7592373B2 (Boehringer Ingelheim International GmbH, priority 2003, dated 2009)

Target: T1, hMCH-1R (Homo sapiens, UniProt Q99705)
T1 construct: expressed in transfected cells
Test: MCH-1 receptor binding test (125I-MCH binding to hMCH-1R transfected cell membranes)
Details: membranes of hMCH-1R transfected CHO/Galpha16 cells
Description: After the incubation the reaction is filtered using a cell harvester through 0.5% PEI treated fiberglass filters (GF/B, Unifilter Packard). The membrane-bound radioactivity retained on the filter is then determined after the addition of scintillator substance (Packard Microscint 20) in a measuring device (TopCount of Packard). […] The analysis of the concentration binding curve is carried out on the assumption of one receptor binding site.

T1 sequence (Q99705 whole entry): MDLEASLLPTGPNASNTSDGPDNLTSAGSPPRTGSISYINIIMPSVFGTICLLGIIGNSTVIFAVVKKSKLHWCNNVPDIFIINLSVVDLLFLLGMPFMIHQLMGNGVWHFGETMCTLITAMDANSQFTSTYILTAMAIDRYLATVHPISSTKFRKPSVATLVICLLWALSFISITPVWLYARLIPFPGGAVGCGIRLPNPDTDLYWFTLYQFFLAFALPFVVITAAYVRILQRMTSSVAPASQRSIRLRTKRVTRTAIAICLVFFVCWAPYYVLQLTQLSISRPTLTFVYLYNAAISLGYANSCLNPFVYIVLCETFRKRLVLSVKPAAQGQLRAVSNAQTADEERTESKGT

| IC50 [nM] | Compound |
| --- | --- |
| 7.5 | CN(C(=O)C#Cc1ccc(CN2CCCC2)cc1)c1ccc(-c2ccc(Cl)cc2)cc1 [Example 1.23, 3-(4-pyrrolidin-1-ylmethylphenyl)propynoic acid-(4′-chlorobiphenyl-4-yl)methylamide] |
| 50 | CCN(CC)CCOc1ccc(NC(=O)C#Cc2ccc(Cl)cc2Cl)c(Cl)c1 [Example 4.8, 3-(2,4-dichlorophenyl)propynoic acid-[2-chloro-4-(2-diethylaminoethoxy)phenyl]amide] |
| 20 | COc1ccc(-c2ccc(NC(=O)/C=C/c3ccc(CN4CCCC4)cc3)cc2)cc1 [Example 5.1, (E)-N-(4′-methoxybiphenyl-4-yl)-3-(4-pyrrolidin-1-ylmethylphenyl)acrylamide] |

Tested on: not given
Test: not given
Details: not given

| Compound | melting point [°C] |
| --- | --- |
| CN(C(=O)C#Cc1ccc(CN2CCCC2)cc1)c1ccc(-c2ccc(Cl)cc2)cc1 [Example 1.23, 3-(4-pyrrolidin-1-ylmethylphenyl)propynoic acid-(4′-chlorobiphenyl-4-yl)methylamide] | 161 to 164 |
| COc1ccc(-c2ccc(NC(=O)/C=C/c3ccc(CN4CCCC4)cc3)cc2)cc1 [Example 5.1, (E)-N-(4′-methoxybiphenyl-4-yl)-3-(4-pyrrolidin-1-ylmethylphenyl)acrylamide] | 199 to 200 |
| COCCN(Cc1ccc(CCC(=O)Nc2ccc(-c3ccc(Cl)cc3)cc2)cc1)CC(C)(C)O [Example 6.14, N-(4′-chlorobiphenyl-4-yl)-3-(4-{[(2-hydroxy-2-methylpropyl)-(2-methoxyethyl)amino]methyl}phenyl)propionamide] | 108 to 109 |
| O=C(CCc1ccc(CNCC2CC2)cc1)Nc1ccc(-c2ccc(Cl)cc2)cc1 [Example 6.15, N-(4′-chlorobiphenyl-4-yl)-3-{4-[(cyclopropylmethylamino)methyl]phenyl}propionamide] | 191 to 192 |
| O=C(CCc1ccc(CN2CCN3CCCC3C2)cc1)Nc1ccc(-c2ccc(Cl)cc2)cc1 (stereo not drawn) [Example 6.16, N-(4′-chlorobiphenyl-4-yl)-3-[4-(hexahydropyrrolo[1,2-a]pyrazin-2-ylmethyl)phenyl]propionamide] | 177 |
| COCCN(C)Cc1ccc(CCC(=O)Nc2ccc(-c3ccc(Cl)cc3)cc2)cc1 [Example 6.17, N-(4′-chlorobiphenyl-4-yl)-3-(4-{[(2-methoxyethyl)methylamino]methyl}phenyl)propionamide] | 138 |
| CN(Cc1ccccc1)Cc1ccc(CCC(=O)Nc2ccc(-c3ccc(Cl)cc3)cc2)cc1 [Example 6.18, 3-{4-[(benzylmethylamino)methyl]phenyl}-N-(4′-chlorobiphenyl-4-yl)propionamide] | 174 to 175 |
| CN(Cc1ccc(CCC(=O)Nc2ccc(-c3ccc(Cl)cc3)cc2)cc1)CC1CCOCC1 [Example 6.19, N-(4′-chlorobiphenyl-4-yl)-3-(4-{[methyl-(tetrahydropyran-4-ylmethyl)amino]methyl}phenyl)propionamide] | 162 to 163 |
| CN(CCOc1ccccc1)Cc1ccc(CCC(=O)Nc2ccc(-c3ccc(Cl)cc3)cc2)cc1 [Example 6.20, N-(4′-chlorobiphenyl-4-yl)-3-(4-{[methyl-(2-phenoxyethyl)amino]methyl}phenyl)propionamide] | 122 to 124 |
| CC1CN(Cc2ccc(CCC(=O)Nc3ccc(-c4ccc(Cl)cc4)cc3)cc2)CC(C)O1 (stereo not drawn) [Example 6.21, N-(4′-chlorobiphenyl-4-yl)-3-[4-(2,6-dimethylmorpholin4-ylmethyl)phenyl]propionamide] | 158.5 to 160.5 |
| O=C(CCc1ccc(CNCC2CCCCC2)cc1)Nc1ccc(-c2ccc(Cl)cc2)cc1 [Example 6.22, N-(4′-chlorobiphenyl-4-yl)-3-{4-[(cyclohexylmethylamino)methyl]phenyl}propionamide] | 201 to 204 |

Now from value to compound:

| melting point [°C] | Compound |
| --- | --- |
| 168.8 | O=C(CCc1ccc(CN2CCC(N3CCCCC3)C2)cc1)Nc1ccc(-c2ccc(Cl)cc2)cc1 (stereo not drawn) [Example 6.25, N-(4′-chlorobiphenyl-4-yl)-3-[4-(3-piperidin-1-ylpyrrolidin-1-ylmethyl)phenyl]propionamide] |
| 164 to 169 | C[C@@H]1C[C@H](C)CN(Cc2ccc(CCC(=O)Nc3ccc(-c4ccc(Cl)cc4)cc3)cc2)C1 [Example 6.26, N-(4′-chlorobiphenyl-4-yl)-3-[4-((3S,5R)-3,5-dimethylpiperidin-1-ylmethyl)phenyl]propionamide] |
| 165 | CN(CCCN)Cc1ccc(CCC(=O)Nc2ccc(-c3ccc(Cl)cc3)cc2)cc1 [Example 6.27, 3-(4-{[(3-aminopropyl)methylamino]methyl}phenyl)-N-(4′-chlorobiphenyl-4-yl)propionamide] |
| 201.5 | O=C(CCc1ccc(CN2CCC3(CCCC3)CC2)cc1)Nc1ccc(-c2ccc(Cl)cc2)cc1 [Example 6.28, 3-[4-(8-azaspiro[4.5]dec-8-ylmethyl)phenyl]-N-(4′-chlorobiphenyl-4-yl)propionamide] |
| 169 to 170 | O=C(CCc1ccc(CN2CC[C@@H](O)C2)cc1)Nc1ccc(-c2ccc(Cl)cc2)cc1 [Example 6.29, N-(4′-chlorobiphenyl-4-yl)-3-[4-((R)-3-hydroxypyrrolidin-1-ylmethyl)phenyl]propionamide] |
| 102 | CN(Cc1ccncc1)Cc1ccc(CCC(=O)Nc2ccc(-c3ccc(Cl)cc3)cc2)cc1 [Example 6.32, N-(4′-chlorobiphenyl-4-yl)-3-{4-[(methylpyridin-4-ylmethylamino)methyl]phenyl}propionamide] |
| 168 to 169 | CN(Cc1ccc(CCC(=O)Nc2ccc(-c3ccc(Cl)cc3)cc2)cc1)Cc1cccnc1 [Example 6.33, N-(4′-chlorobiphenyl-4-yl)-3-{4-[(methylpyridin-3-ylmethylamino)methyl]phenyl}propionamide] |
| 149 to 150.5 | O=C(CCc1ccc(CNCCC2CCCCC2)cc1)Nc1ccc(-c2ccc(Cl)cc2)cc1 [Example 6.35, N-(4′-chlorobiphenyl-4-yl)-3-{4-[(cyclohexylethylamino)methyl]phenyl}propionamide] |
| 176 | O=C(CCc1ccc(CNCc2ccccc2)cc1)Nc1ccc(-c2ccc(Cl)cc2)cc1 [Example 6.38, 3-[4-(benzylaminomethyl)phenyl]-N-(4′-chlorobiphenyl-4-yl)propionamide] |
| 208 | O=C(CCc1ccc(CNC2CCCCC2)cc1)Nc1ccc(-c2ccc(Cl)cc2)cc1 [Example 6.39, N-(4′-chlorobiphenyl-4-yl)-3-(4-cyclohexylaminomethylphenyl)propionamide] |
| 165 | CC(C)N(Cc1ccc(CCC(=O)Nc2ccc(-c3ccc(Cl)cc3)cc2)cc1)C1CCCCC1 [Example 6.40, N-(4′-chlorobiphenyl-4-yl)-3-{4-[(cyclohexylisopropylamino)methyl]phenyl}propionamide] |
| 196 to 197 | O=C(CCc1ccc(CNC2CCCC2)cc1)Nc1ccc(-c2ccc(Cl)cc2)cc1 [Example 6.41, N-(4′-chlorobiphenyl-4-yl)-3-(4-cyclopentylaminomethylphenyl)propionamide] |
| 135 | CCN(Cc1ccc(CCC(=O)Nc2ccc(-c3ccc(Cl)cc3)cc2)cc1)CC(C)(C)O [Example 6.42, N-(4′-chlorobiphenyl-4-yl)-3-(4-{[ethyl-(2-hydroxy-2-methylpropyl)amino]methyl}phenyl)propionamide] |
| 119 | CN(C(=O)CCc1ccc(CN2CCC3(CCCC3)CC2)cc1)c1ccc(-c2ccc(Cl)cc2)cc1 [Example 6.45, 3-[4-(8-azaspiro[4.5]dec-8-ylmethyl)phenyl]-N-(4′-chlorobiphenyl-4-yl)-N-methylpropionamide] |
| 187 to 188 | O=C(Nc1ccc(-c2ccc(Cl)cc2)cc1)C1CC1c1ccc(CN2CCOCC2)cc1 (stereo not drawn) [Example 6.217, 2-(4-morpholin-4-ylmethylphenyl)cyclopropanecarboxylic acid (4′-chlorobiphenyl-4-yl)amide] |
| 176 to 179 | O=C(C#Cc1ccc(C(F)(F)F)cc1Cl)Nc1ccc2nc(N3CCCCC3)ccc2c1 [Example 7.1, 3-(2-chloro-4-trifluoromethylphenyl)propynoic acid-(2-piperidin-1-ylquinolin-6-yl)amide] |
| 57 to 60 | CC(C)Nc1ccc2cc(NC(=O)C#Cc3ccc(C(F)(F)F)cc3Cl)ccc2n1 [Example 7.2, 3-(2-chloro-4-trifluoromethylphenyl)propynoic acid-(2-isopropylaminoquinolin-6-yl)amide] |

Tested on: not given
Test: not given
Details: animals treated with the antagonist; cited from earlier work

| Compound | body weight in long term trials |
| --- | --- |
| COCC1=C(C(=O)OC)[C@H](c2ccc(F)c(F)c2)N(C(=O)NCCCN2CCC(c3cccc(NC(C)=O)c3)CC2)C(=O)N1 [SNAP-7941] | lose significant amounts of weight |

Tested on: rats
Test: not given
Details: cited from earlier work

| Compound | effects in behavioral experiments |
| --- | --- |
| COCC1=C(C(=O)OC)[C@H](c2ccc(F)c(F)c2)N(C(=O)NCCCN2CCC(c3cccc(NC(C)=O)c3)CC2)C(=O)N1 [SNAP-7941] | anxiolytic and antidepressant effects |
